Where “and” joins values, the source holds several entries; their conditions need not be identical. Equal entries are not always repeated. Where two headings read alike, the source gives them in different places.
Tests used:
Bacillus pumilus (K-1) = tested on: Bacillus pumilus (K-1)
Protocol: This can be accomplished by contacting a given concentration of the dye with the cells, removing the cells from the dye solution and then comparing the optical density (at λmax) of the remaining dye solution with a control containing the original concentration of the dye. The percentage decrease in optical density indicates the percentage of dye which has been bound to the cells.
The culture was collected by centrifugation at 5,000×g. for 10 minutes, and the resultant pellet was washed several times in cold 0.05 M potassium phosphate buffer, pH 7.0. The pellet was resuspended in the buffer solution to a final optical density of 1.0 at 620 nm as measured with a Bausch and Lomb Spectronic 20.
One-tenth ml of dye solution (1 mg/ml in methanol) was added to a tube containing 5 ml of cell suspension described above and a control tube containing 0.05 M potassium phosphate buffer, pH 7.0. All tubes were well agitated using a Vari-Whirl Mixer (Will Scientific Co.) and then centrifuged at 10,000×g. for 10 minutes.
The percent binding of dye to the cells for each dye, was determined by comparison of the density at λmax of the control supernatant sample with the density at λmax of the supernatant of the cell sample.

Proteus vulgaris = experiment: Inhibition of bacterial growth, filter paper technique; type: cell-based; conditions: Table VIII; 10^-3 molar; Gram -; 37° C./48 hrs
Protocol: (§1) Schleider and Schuell #740-E filter paper (12.7 mm diameter) was dipped in the dye solution, touched to the side of the beaker to removed excess dye, and placed in the center of the inoculated agar plates (prepared in (B) above). The plates were then incubated at 26° C. for […]. The plates were then examined to determine if bacterial growth had been affected by the dye-containing filter paper. With certain dyes bacterial growth was inhibited in a circular area around the filter paper. With other dyes no such area of inhibition was observed.
(§2) Cultures of various gram-negative and gram-positive bacteria were prepared in nutrient and Tryptic Soy Agar and plates were poured as described in Example 1. Methanolic solutions of cyanine dyes were prepared at 10^-3 molar and applied to the plates using the filter paper technique described in Example 1. Control plates were prepared in which the filter paper contained methanol or a 0.2 molar aqueous solution of phenol. The plates were then incubated at 26° C. or 37° C. for forty-eight hours.

Micrococcus flavus = experiment: as above; type: cell-based; conditions: Table VIII, 10^-3 molar, Gram +, 26° C./48 hrs; for zone of inhibition at 1000 µM: Micrococcus flavus, read-out: Area of Inhibition (diameter)
Protocol: as §1, §2

[1] = tested on: Escherichia coli, Strain B; experiment: as above; type: cell-based; conditions: Table VIII; 10^-3 molar; Gram -; 37° C./48 hrs
Protocol: as §1, §2

Bacillus megaterium = experiment: as above; type: cell-based; conditions: Table VIII, 10^-3 molar, Gram +, Tryptic Soy, 37° C./48 hrs; for zone of inhibition at 1000 µM: Priestia megaterium, read-out: Area of Inhibition (diameter)
Protocol: as §1, §2

Enterobacter aerogenes = experiment: as above; type: cell-based; conditions: Table VIII; 10^-3 molar; Gram -; 37° C./48 hrs
Protocol: as §1, §2

Bacillus subtilis = experiment: as above; type: cell-based; conditions: Table VIII, 10^-3 molar, Gram +, 26° C./48 hrs, read-out: Area of Inhibition (diameter)
Protocol: as §1, §2

Bacillus cereus = experiment: as above; type: cell-based; conditions: Table VIII, 10^-3 molar, Gram +, 26° C./48 hrs; for zone of inhibition at 1000 µM: Bacillus cereus, read-out: Area of Inhibition (diameter)
Protocol: as §1, §2

Alcaligenes faecalis = experiment: as above; type: cell-based; conditions: Table VIII; 10^-3 molar; Gram -; 37° C./48 hrs
Protocol: as §1, §2

Micrococus luteus = experiment: as above; type: cell-based; conditions: Table VIII, 10^-3 molar, Gram +, 26° C./48 hrs; for zone of inhibition at 1000 µM: read-out: Area of Inhibition (diameter)
Protocol: as §1, §2

[2] = not told
Protocol: (§3) If a published reduction potential is not available, suitable techniques for measuring reduction potential are available and can be used. […] This technique involves measurement at 20° C., of an approximately 10^-4 molar solution of the dye in an electrolyte, such as methanol which is 0.05 molar in lithium chloride, using a dropping mercury electrode. The potential values are reported by reference to a silver-silver chloride electrode in a saturated solution of potassium chloride at 20° C.

[3] = tested on: Bacillus pumilus strain K-1; experiment: Inhibition of bacterial growth, filter paper on inoculated agar plates; type: cell-based
Protocol: Nutrient broth was prepared by mixing 8 grams of BACTO dehydrated nutrient broth per liter of distilled water. […] Samples of the nutrient broth were then inoculated with Bacillus pumilus strain K-1 culture. […]
Nutrient agar was prepared by mixing 23 grams of BACTO nutrient agar per liter of distilled water. The nutrient agar was sterilized in the same way as the nutrient broth. After it has cooled to about 45° C. 250 ml of the nutrient agar solution was aeseptically inoculated with 5 ml of the Bacillus pumilus, K-1 culture prepared in (A), above. Plates of the inoculated nutrient agar were then poured and allowed to harden.
[…] To minimize possible photocatalyzed reactions of the dyes, all preparations were performed under yellow lights and all incubations were performed in the dark.
Schleider and Schuell #740-E filter paper (12.7 mm diameter) was dipped in the dye solution, touched to the side of the beaker to removed excess dye, and placed in the center of the inoculated agar plates (prepared in (B) above). […] The plates were then examined to determine if bacterial growth had been affected by the dye-containing filter paper. […]
Control plates were prepared in which the filter paper contained methanol or a 0.2 molar aqueous solution of phenol. […]

Sea Urchin Eggs = experiment: Inhibition of cell division in fertilized sea urchin eggs; type: cell-based; conditions: arbitrary scale 0 to 5, 5 most active; dye 10^-5 to 10^-6 molar, 60 minutes after fertilization
Protocol: To suspensions in filtered sea water of fertilized sea urchin eggs there was added, three minutes after fertilization, methanolic solutions of the dyes in an amount sufficient to yield a final concentration of dye of between 10^-5 and 10^-6 molar. The final concentration of methanol was, at a maximum 1×10^-4 molar. The eggs were visually observed at 60 minutes after fertilization to determine if cell division and the formation of mitotic apparatus had been inhibited. A rating was assigned based on the concentration of dye required to inhibit cell division and synthesis of DNA.

[4] = tested on: the bacteria (various gram-negative and gram-positive); experiment: Binding of dyes to the bacteria of Example 9; conditions: determined as in Example 8
Protocol: In addition, binding of dyes 7, 17 and 24 to the bacteria was determined as in Example 8.

[5] = Oxidation potential (Eox) of the dye; type: physicochemical; conditions: Tables I, II, V, VI
[6] = Reduction potential (ER) of the dye; conditions: list of dyes; vs. silver-silver chloride electrode, 20° C.
Protocol: as §3

[7] = Bacillus pumilus, K1, 48 h, Table VIII, 10^-3 molar, Nutrient, 37° C./48 hrs, read-out: Area of Inhibition (diameter)
[8] = Bacillus pumilus, K1, Table IX, 10^-3 M, read-out: Diameter of Inhibition
[9] = Bacillus pumilus, K1, 72 h, Tables V and VI, 10^-3 molar, three days, read-out: Diameter of Inhibition
[10] = Bacillus pumilus, K1, Table II, 10^-4 molar, 26° C., forty-eight hours, read-out: Diameter of Inhibition
[11] = Bacillus pumilus, K1, Table IX, 10^-4 M, read-out: Diameter of Inhibition
[12] = Table II, 10^-4 molar, 26° C., forty-eight hours

% Bound (Bacillus pumilus (K-1)) [%] | ER [2] | reduction potential (ER) [2] [volts] | binding to the bacteria (in words) [4] | Compound | Area of Inhibition (diameter) (Proteus vulgaris) | Area of Inhibition (diameter) [1] | zone of inhibition at 1000 µM (Bacillus megaterium) [mm] | Area of Inhibition (diameter) (Enterobacter aerogenes) | zone of inhibition at 1000 µM (Bacillus subtilis) [mm] | Area of Inhibition (diameter) (Alcaligenes faecalis) | zone of inhibition at 1000 µM (Micrococus luteus) [mm] | Activity Rating [3] | zone of inhibition at 1000 µM [3, 7] [mm] | zone of inhibition at 1000 µM [3, 8] [mm] | Sea Urchin Eggs Activity (Sea Urchin Eggs) | zone of inhibition at 1000 µM (Micrococcus flavus) [mm] | zone of inhibition at 1000 µM (Bacillus cereus) [mm] | also measured
73.1 | -1.00 | -1.00 | found to bind | CCN1C(=CC=Cc2sc3ccccc3[n+]2CC)Sc2ccccc21 [Dye 17] | No | No | 14 | No | 15 | No | 14 | 18 and 31 | 17 | 19 | +4 | 15 | 13 | effect upon diameter of inhibition as a result of changing the anion ([3]; 10^-3 molar, three days): no effect upon diameter of inhibition; zone of inhibition at 1000 µM [3, 9]: 19 mm; zone of inhibition at 100 µM [3, 10]: 16.5 mm; zone of inhibition at 100 µM [3, 11]: 16.5 mm
99.4 | -.83 | -0.83 | – | CCN1C(=CC=CC=Cc2oc3ccccc3[n+]2CC)Oc2ccccc21 [Dye 21] | No | No | 18 | No | 16 | No | 14 | 66 | 21 | 21 | – | 18 | 14 | –
32.8 | – | -0.79 | found to bind | CCN1C(=CC=Cc2n(CC)c3nc4ccccc4nc3[n+]2CC)N(CC)c2nc3ccccc3nc21 [Dye 24] | No | No | 14 | Slight | 13 | No | 14 | – | 13 | 13 | 0 | 13 | 13.5 | Eox [5]: +1.00; Diameter of Inhibition [3, 12]: None; Diameter of Inhibition ([3]; Table IX, 10^-4 M): None
83.7 | – | -0.20 | – | Cn1c(-c2ccccc2)c(C=CC=C2C(c3ccccc3)=[N+](C)c3ccccc32)c2ccccc21 [Dye 33] | No | No | – | No | 13 | No | – | 0 | – | – | 0 | – | – | Eox [5]: > +1.00; Area of Inhibition (diameter) (Micrococcus flavus): No; Area of Inhibition (diameter) (Bacillus megaterium): No; Area of Inhibition (diameter) (Bacillus cereus): No; Area of Inhibition (diameter) (Micrococus luteus): Slight; Diameter of Inhibition ([3]; Table I, 10^-4 molar, 26° C., fifty hours, dark): None; Diameter of Inhibition [3, 12]: None; Diameter of Inhibition ([3]; Table IX, 10^-3 M): None; Diameter of Inhibition ([3]; Table IX, 10^-4 M): None; Area of Inhibition (diameter) ([3]; Table VIII, 10^-3 molar, Nutrient, 37° C./48 hrs): No

The next lines start with the compound.

Compound | % Bound (Bacillus pumilus (K-1)) [%] | ER [2] | reduction potential (ER) [2] [volts] | binding to the bacteria (in words) [4] | Area of Inhibition (diameter) (Proteus vulgaris) | Area of Inhibition (diameter) [1] | zone of inhibition at 1000 µM (Bacillus megaterium) [mm] | Area of Inhibition (diameter) (Enterobacter aerogenes) | zone of inhibition at 1000 µM (Bacillus subtilis) [mm] | Area of Inhibition (diameter) (Alcaligenes faecalis) | zone of inhibition at 1000 µM (Micrococus luteus) [mm] | Activity Rating [3] | zone of inhibition at 1000 µM [3, 7] [mm] | zone of inhibition at 1000 µM [3, 8] [mm] | Sea Urchin Eggs Activity (Sea Urchin Eggs) | zone of inhibition at 1000 µM (Micrococcus flavus) [mm] | zone of inhibition at 1000 µM (Bacillus cereus) [mm] | also measured
CCN1C(=Cc2oc3ccccc3[n+]2CC)Oc2ccccc21 [Dye 1] | 33.6 | -1.69 | -1.69 | – | No | No | 17 | No | 13 | No | 22 | 39 | 18 | 18 | – | – | – | Area of Inhibition (diameter) (Micrococcus flavus): No; Area of Inhibition (diameter) (Bacillus cereus): No
CCN1C(=CC=Cc2oc3ccccc3[n+]2CC)Oc2ccccc21 [Dye 7] | 31.7 | -1.26 | -1.26 | found to bind | No | No | 21 | No | 18 | No | 16 | 100 | 24 | 34 | +4 | 19 | 14 | zone of inhibition at 1000 µM [3, 9]: 34 mm; zone of inhibition at 100 µM ([3]; Bacillus pumilus, K1, Table I, 10^-4 molar, 26° C., fifty hours, dark, read-out: Diameter of Inhibition): 22.5 mm; zone of inhibition at 100 µM [3, 10]: 25.5 mm; zone of inhibition at 100 µM ([3]; Bacillus pumilus, K1, Table III, 1.0 × 10^-4 M, read-out: Diameter of Inhibition): 26 mm; zone of inhibition at 200 µM ([3]; Bacillus pumilus, K1, Table III, 2.0 × 10^-4 M, read-out: Diameter of Inhibition): 29 mm; zone of inhibition at 25 µM ([3]; Bacillus pumilus, K1, Table III, 2.5 × 10^-5 M, read-out: Diameter of Inhibition): 14.5 mm; zone of inhibition at 50 µM ([3]; Bacillus pumilus, K1, Table III, 5.0 × 10^-5 M, read-out: Diameter of Inhibition): 20 mm; zone of inhibition at 100 µM [3, 11]: 25.5 mm; degree of inhibition compared with phenol (in words) ([3]; dye 7 at 1×10^-4 molar): same degree of inhibition as phenol at 2.13×10^-1 molar; times more active as an inhibitor than phenol ([3]; dye 7 at 1×10^-4 molar vs phenol at 2.13×10^-1 molar): ~2000 times
CCN1C(=CC=Cc2sc3cc([N+](=O)[O-])ccc3[n+]2CC)Sc2cc([N+](=O)[O-])ccc21 [Dye 29] | – | – | – | – | – | – | – | – | – | – | – | – | – | – | 0 | – | – | % Bound (Bacillus pumilus (K-1); Table IX): 67.9%; Diameter of Inhibition ([3]; Table IX, 10^-3 M): None; Activity Rating ([3]; Table IX, 10^-3 M, relative to phenol concentration giving equal diameter, Dye 7 = 100 (dye 20 relative to dye 17)): 0; reduction potential (ER) [6]: -0.58 volts
